Molecules are shown by their SMILES. Where two headings read alike, the source gives them in different places.

Common to all, as to type: cell-based
For experiment [1], the target named is T1, Aca-ACR-16 (Ancylostoma caninum, UniProt A0A5C1L5J1).
T1 sequence (A0A5C1L5J1 21-497): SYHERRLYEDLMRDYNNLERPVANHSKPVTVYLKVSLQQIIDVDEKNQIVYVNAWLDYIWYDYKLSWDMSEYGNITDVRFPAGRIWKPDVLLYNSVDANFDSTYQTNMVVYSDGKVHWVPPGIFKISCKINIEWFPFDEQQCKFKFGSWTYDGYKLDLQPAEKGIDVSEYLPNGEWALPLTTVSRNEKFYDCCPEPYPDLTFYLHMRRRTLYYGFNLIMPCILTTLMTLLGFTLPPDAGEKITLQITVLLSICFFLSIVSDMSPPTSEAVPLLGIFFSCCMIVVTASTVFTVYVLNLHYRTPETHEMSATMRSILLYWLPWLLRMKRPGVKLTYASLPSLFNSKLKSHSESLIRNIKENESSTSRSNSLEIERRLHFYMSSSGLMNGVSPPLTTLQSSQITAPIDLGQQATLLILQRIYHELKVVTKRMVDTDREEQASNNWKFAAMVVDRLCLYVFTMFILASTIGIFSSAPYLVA
The experiment in a line: two-electrode voltage clamp, Xenopus oocytes, peak current. In general terms: Two-electrode voltage clamp holds a large cell at a set potential and records current.

Experiment [2] concerns the target T1, Aca-ACR-16. The experiment in a line: two-electrode voltage clamp, Xenopus oocytes, inhibition of ACh current. The note with it: read-out: % inhibition at 10 μM.
The target of experiment [3] is T1, Aca-ACR-16. The description is as above. Conditions: read-out: % inhibition at 10 μM. The source holds these as a separate data set.
Experiment [4] has as its target T1, Aca-ACR-16. Put plainly: two-electrode voltage clamp, Xenopus oocytes, peak current. The note with it: agonist; 10 s application; co-expressed with Asu-RIC-3.

For `CC(=O)OCC[N+](C)(C)C` [acetylcholine], on Aca-ACR-16 [1], the EC50 (commonly the concentration needed to bring the measured effect to its halfway point) was found to be 50 µM. `COc1cc2c3cc1Oc1cc(ccc1O)C[C@@H]1c4c(cc(OC)c(O)c4Oc4ccc(cc4)C[C@@H]3N(C)CC2)CC[N+]1(C)C` [d-tubocurarine]: the inhibition (as a rule, the relative decrease from the control value, in per cent) at 10 µM at Aca-ACR-16 [2] was 100 ± 0.1%. For `CN1C(=O)[C@]23C[C@H]4C(C)(C)[C@]5(CNc6c5ccc5c6OC=CC(C)(C)O5)C[C@@]41CN2CC[C@@]3(C)O` [derquantel], on Aca-ACR-16 [2], the inhibition at 10 µM came to 72 ± 5.6%. `CO[C@H]1CC=C2CCN3CCC4=C(CC(=O)OC4)[C@]23C1` [dihydro-β-erythroidine]: the inhibition at 10 µM on Aca-ACR-16 [3] is 98.8 ± 0.4%. For the molecule `Clc1ccc(C2CC3CCC2N3)cn1` (stereo not drawn) [epibatidine], the “% of 100 μM ACh current at 100 μM” value on Aca-ACR-16 [4] stood at 85.0 ± 4.0%. Consider `CNC1(C)C2CCC(C2)C1(C)C` (stereo not drawn) [mecamylamine], for which the inhibition at 10 µM on Aca-ACR-16 [2] was 98.8 ± 0.6%.

These data come from article PMC7869652 (Invertebrate neuroscience : IN, 2019).
